Tests used:
[1] = compound: C1=CC2=C(C=CC(=C2)C=C3C(=O)NC(=NCC4=CC=CS4)S3)N=C1 [R0-3306]
[2] = compound: CC(=O)O[C@H]1C(=O)[C@@]2(C)[C@H]([C@H](OC(=O)c3ccccc3)[C@]3(O)C[C@H](OC(=O)[C@H](O)[C@@H](NC(=O)c4ccccc4)c4ccccc4)C(C)=C1C3(C)C)[C@]1(OC(C)=O)CO[C@@H]1C[C@@H]2O [Paclitaxel]
[3] = compound: T1, CC(=O)c1c(C)c2cnc(Nc3ccc(N4CCN(CCOCCOCCOCCNC(=O)COc5cccc6c5C(=O)N(C5CCC(=O)NC5=O)C6=O)CC4)cn3)nc2n(C2CCCC2)c1=O [BSJ-03-123]
[4] = compound: CC(C)Nc1cc(-c2c[nH]c(C(=O)N[C@H](CO)c3cccc(Cl)c3)c2)c(Cl)cn1 [BVD523]
[5] = compound: CCC1=CN=CN=C1N2CCN(CC2)CC3=NC4=C(N3)C=C(C=C4)C(F)(F)F
[6] = compound: CCOc1cc2ncc(C#N)c(Nc3ccc(OCc4ccccn4)c(Cl)c3)c2cc1NC(=O)/C=C/CN(C)C [Neratinib/HKI272]
[7] = compound: T2, CN1CC[C@H](c2c(O)cc(O)c3c(=O)cc(-c4ccccc4Cl)oc23)[C@H](O)C1 [Flavopiridol]
[8] = compound: CO[C@@H](C)Cn1c(=O)n(C)c2cnc3ccc(-c4cncc(C(C)(C)O)c4)cc3c21
[9] = compound: NC1(C(=O)N[C@@H](CCO)c2ccc(Cl)cc2)CCN(c2nc[nH]c3nccc2-3)CC1 [AZD5363]
[10] = compound: C=CC(=O)Nc1ccc(C(=O)Nc2[nH]nc3c2CN(C(=O)N[C@H](CN(C)C)c2ccccc2)C3(C)C)cc1 [YKL-5-124]; assay: GR value, 72 h; higher = faster growth (1 = untreated, <0 = killing);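 also: breast cancer and non-malignant breast epithelial lines, nine half-log doses, viable cells counted by Hoechst and LIVE/DEAD dye imaging versus time-zero plates and DMSO controls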
[11] = compound: T1, BSJ-03-123; assay: as above
[12] = compound: CCN1CCN(Cc2ccc(Nc3ncc(F)c(-c4cc(F)c5nc(C)n(C(C)C)c5c4)n3)nc2)CC1; assay: as above
[13] = compound: CCc1cnn2c(NCc3ccc[n+]([O-])c3)cc(N3CCCC[C@H]3CCO)nc12; assay: as above
[14] = compound: CN(C)C(=O)c1cc2cnc(Nc3ccc(N4CCNCC4)cn3)nc2n1C1CCCC1 [LEE011/Ribociclib]; assay: as above
[15] = compound: CN(C)C/C=C/C(=O)Nc1ccc(C(=O)N2CCC[C@@H](Nc3ncc(Cl)c(-c4c[nH]c5ccccc45)n3)C2)cc1 [THZ531]; assay: as above
[16] = compound: CN(C)C/C=C/C(=O)Nc1ccc(C(=O)Nc2cccc(Nc3ncc(Cl)c(-c4c[nH]c5ccccc45)n3)c2)cc1 [THZ1]; assay: as above
[17] = compound: T2, Flavopiridol; assay: as above
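For GR50, 72 h in this document: breast cancer and non-malignant breast epithelial cell lines, Deep Dye Drop or Dye Drop imaging, nine half-log doses, GR normalized to time-zero plates and DMSO-only controls.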

## SKBR3
[1]
  GR50, 72 h: 4.77 µM
[2]
  GR50, 72 h: 0.00191 µM
[3]
  GR50, 72 h: 1.02 µM
[4]
  GR50, 72 h: 6.46 µM
[5]
  GR50, 72 h: > 10 µM
[6]
  GR50, 72 h: 0.00165 µM
[7]
  GR50, 72 h: 0.132 µM
[8]
  GR50, 72 h: 0.00188 µM
[9]
  GR50, 72 h: 2.76 µM
[10]; 0.001 µM
  GR value: 0.455 GR
[10]; 0.003162 µM
  GR value: 0.198 GR
[10]; 0.01 µM
  GR value: 0.164 GR
[10]; 0.03162 µM
  GR value: 0.137 GR
[10]; 0.1 µM
  GR value: 0.102 GR
[10]; 0.3162 µM
  GR value: -0.123 GR
[10]; 1 µM
  GR value: 0.0239 GR
[10]; 3.162 µM
  GR value: -0.0117 GR
[10]; 10 µM
  GR value: -0.572 GR
[11]; 0.001 µM
  GR value: 0.911 GR
[11]; 0.003162 µM
  GR value: 0.855 GR
[11]; 0.01 µM
  GR value: 0.825 GR
[11]; 0.03162 µM
  GR value: 0.79 GR
[11]; 0.1 µM
  GR value: 0.644 GR
[11]; 0.3162 µM
  GR value: 0.75 GR
[11]; 1 µM
  GR value: 0.506 GR
[11]; 3.162 µM
  GR value: 0.514 GR
[11]; 10 µM
  GR value: -0.35 GR
[12]; 0.001 µM
  GR value: 0.874 GR
[12]; 0.003162 µM
  GR value: 0.866 GR
[12]; 0.01 µM
  GR value: 0.623 GR
[12]; 0.03162 µM
  GR value: 0.491 GR
[12]; 0.1 µM
  GR value: 0.402 GR
[12]; 0.3162 µM
  GR value: 0.337 GR
[12]; 1 µM
  GR value: 0.24 GR
[12]; 3.162 µM
  GR value: 0.27 GR
[12]; 10 µM
  GR value: 0.151 GR
[13]; 0.0001 µM
  GR value: 0.95 GR
[13]; 0.0003162 µM
  GR value: 0.921 GR
[13]; 0.001 µM
  GR value: 1.07 GR
[13]; 0.003162 µM
  GR value: 0.933 GR
[13]; 0.01 µM
  GR value: 0.0102 GR
[13]; 0.03162 µM
  GR value: -0.581 GR
[13]; 0.1 µM
  GR value: -0.6 GR
[13]; 0.3162 µM
  GR value: -0.628 GR
[13]; 1 µM
  GR value: -0.579 GR
[14]; 0.001 µM
  GR value: 0.897 GR
[14]; 0.003162 µM
  GR value: 0.728 GR
[14]; 0.01 µM
  GR value: 0.774 GR
[14]; 0.03162 µM
  GR value: 0.766 GR
[14]; 0.1 µM
  GR value: 0.776 GR
[14]; 0.3162 µM
  GR value: 0.471 GR
[14]; 1 µM
  GR value: 0.582 GR
[14]; 3.162 µM
  GR value: 0.429 GR
[14]; 10 µM
  GR value: 0.586 GR
[15]; 0.0001 µM
  GR value: 1.03 GR
[15]; 0.0003162 µM
  GR value: 0.963 GR
[15]; 0.001 µM
  GR value: 0.975 GR
[15]; 0.003162 µM
  GR value: 0.961 GR
[15]; 0.01 µM
  GR value: 1.07 GR
[15]; 0.03162 µM
  GR value: 0.411 GR
[15]; 0.1 µM
  GR value: -0.26 GR
[15]; 0.3162 µM
  GR value: -0.481 GR
[15]; 1 µM
  GR value: -0.584 GR
[16]; 0.0001 µM
  GR value: 1.08 GR
[16]; 0.0003162 µM
  GR value: 1.06 GR
[16]; 0.001 µM
  GR value: 0.867 GR
[16]; 0.003162 µM
  GR value: 0.854 GR
[16]; 0.01 µM
  GR value: 0.743 GR
[16]; 0.03162 µM
  GR value: 0.0057 GR
[16]; 0.1 µM
  GR value: -0.515 GR
[16]; 0.3162 µM
  GR value: -0.579 GR
[16]; 1 µM
  GR value: -0.789 GR
[17]; 0.0001 µM
  GR value: 1.04 GR
[17]; 0.0003162 µM
  GR value: 0.989 GR
[17]; 0.001 µM
  GR value: 0.844 GR
[17]; 0.003162 µM
  GR value: 0.823 GR
[17]; 0.01 µM
  GR value: 0.823 GR
[17]; 0.03162 µM
  GR value: 0.9 GR
[17]; 0.1 µM
  GR value: 0.641 GR
[17]; 0.3162 µM
  GR value: -0.0615 GR
[17]; 1 µM
  GR value: -0.656 GR
